According to patent publication US7932252B2, “Aryl sulfonamides” (ChemoCentryx, Inc., priority 2004, dated 2011):

What follows are compounds tested against T1, CCR9 (Homo sapiens, UniProt P51686) (assay: chemotaxis (conventional migration) assay and/or calcium mobilization (calcium flux) assay, TECK-induced, MOLT-4 cells). Settings: Table 1, assay not specified per compound, read-out: IC50, activity in either or both of the chemotaxis assay and calcium mobilization assays.
T1 construct: CCR9-expressing cells (such as a T cell line MOLT-4 cells); host or cells: MOLT-4
T1 sequence (P51686 1-369): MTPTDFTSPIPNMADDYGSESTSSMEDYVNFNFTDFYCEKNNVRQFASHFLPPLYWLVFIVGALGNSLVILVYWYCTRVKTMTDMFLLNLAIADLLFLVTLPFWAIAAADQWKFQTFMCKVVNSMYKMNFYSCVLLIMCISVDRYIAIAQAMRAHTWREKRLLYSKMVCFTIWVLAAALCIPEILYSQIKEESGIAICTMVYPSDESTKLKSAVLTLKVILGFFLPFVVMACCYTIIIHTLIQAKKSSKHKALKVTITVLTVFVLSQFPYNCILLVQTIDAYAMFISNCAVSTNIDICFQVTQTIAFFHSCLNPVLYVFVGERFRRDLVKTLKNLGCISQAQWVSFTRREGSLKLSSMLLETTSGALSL
Type: cell-based
Method: MOLT-4 cells were obtained from the American Type Culture Collection (Manassas, Va.) and cultured in RPMI tissue culture medium supplemented with 10% fetal calf serum (FCS) in a humidified 5% CO2 incubator at 37° C. Recombinant human chemokine protein TECK was obtained from R&D Systems (Minneapolis, Minn.). ChemoTX® chemotaxis microchambers were purchased from Neuro Probe (Gaithersburg, Md.). CyQUANT® cell proliferation kits were purchased from Molecular Probes (Eugene, Oreg.). Calcium indicator dye Fluo-4 AM was purchased from Molecular Devices (Mountain View, Calif.).
Conventional migration assay was used to determine the efficacy of potential receptor antagonists in blocking migration mediated through CCR9. This assay was routinely performed using the ChemoTX® microchamber system with a 5-μm pore-sized polycarbonate membrane. To begin such an assay, MOLT-4 cells were harvested by centrifugation of cell suspension at 1000 PRM on a GS-6R Beckman centrifuge. The cell pellet was resuspended in chemotaxis buffer (HBSS with 0.1% BSA) at 5×10^6 cells/mL. Test compounds at desired concentrations were prepared from 10 mM stock solutions by serial dilutions in chemotaxis buffer. An equal volume of cells and compounds were mixed and incubated at room temperature for 15 minutes. Afterwards, 20 μL of the mixture was transferred onto the porous membrane of a migration microchamber, with 29 μL of 50 nM chemokine TECK protein placed at the lower chamber. Following a 150-minute incubation at 37° C., during which cells migrated against the chemokine gradient, the assay was terminated by removing the cell drops from atop the filter. To quantify cells migrated across the membrane, 5 μL of 7× CyQUANT® solution was added to each well in the lower chamber, and the fluorescence signal measured on a Spectrafluor Plus fluorescence plate reader (TECAN, Durham, N.C.). The degree of inhibition was determined by comparing migration signals between compound-treated and untreated cells. IC50 calculation was further performed by non-linear squares regression analysis using Graphpad Prism (Graphpad Software, San Diego, Calif.).
Calcium flux assay measures an increase in intracellular calcium following ligand-induced receptor activation. In the screen of CCR9 antagonists, it was used as a secondary assay carried out on a FLIPR® machine (Molecular Devices, Mountain View, Calif.). To begin an assay, MOLT-4 cells were harvested by centrifugation of cell suspension, and resuspended to 1.5×10^6 cells/mL in HBSS (with 1% fetal calf serum). Cells were then labeled with a calcium indicator dye Fluo-4 AM for 45 minutes at 37° C. with gentle shaking. Following incubation, cells were pelletted, washed once with HBSS and resuspended in the same buffer at a density of 1.6×10^6 cells/mL. One hundred microliters of labeled cells were mixed with 10 μL of test compound at the appropriate concentrations on an assay plate. Chemokine protein TECK was added at a final concentration of 25 nM to activate the receptor. The degree of inhibition was determined by comparing calcium signals between compound-treated and untreated cells. IC50 calculations were further performed by non-linear squares regression analysis using Graphpad Prism (Graphpad Software, San Diego, Calif.).
Activity is provided as follows for either or both of the chemotaxis assay and/or calcium mobilization assays, described above.

| SMILES | IC50 |
| --- | --- |
| CC(C)(C)c1ccc(S(=O)(=O)Nc2ccc(Cl)cc2Nc2ccncc2)cc1 | < 500 nM |
| CC(=O)N(c1ccncc1)c1cc(Cl)ccc1NS(=O)(=O)c1ccc(C(C)(C)C)cc1 | < 500 nM |
| CC(C)(C)c1ccc(S(=O)(=O)Nc2ccc(Cl)cc2C(O)c2cccnc2)cc1 (stereo not drawn) | < 500 nM |
| CC(C)(C)c1ccc(S(=O)(=O)Nc2ccc(Cl)cc2C(O)c2cc[n+]([O-])cc2)cc1 (stereo not drawn) | < 500 nM |
| C=CC(O)(c1cc[n+]([O-])cc1)c1cc(Cl)ccc1NS(=O)(=O)c1ccc(C(C)(C)C)cc1 (stereo not drawn) | < 500 nM |
| CC(C)(C)c1ccc(S(=O)(=O)Nc2ccc(Cl)cc2C(N)c2cc[n+]([O-])cc2)cc1 (stereo not drawn) | < 500 nM |
| CC(C)(C)c1ccc(S(=O)(=O)Nc2ccc(Cl)cc2C(F)(F)c2ccncc2)cc1 | < 500 nM |
| O=S(=O)(Nc1ccc(Cl)cc1C(O)c1ccncc1)c1ccc(-c2cnco2)cc1 (stereo not drawn) | < 500 nM |
| CC(C)(C)c1ccc(S(=O)(=O)Nc2ccc(Cl)cc2C(O)c2ccncc2)cc1 (stereo not drawn) | < 500 nM |
| CC(C)(C)c1ccc(S(=O)(=O)Nc2ccc(Cl)cc2C(F)(F)c2cc[n+]([O-])cc2)cc1 | < 500 nM |
| C=C(c1cc[n+]([O-])cc1)c1cc(Cl)ccc1NS(=O)(=O)c1ccc(C(C)(C)C)cc1 | < 500 nM |
| CO/N=C(\c1ccncc1)c1cc(Cl)ccc1NS(=O)(=O)c1ccc(C(C)(C)C)cc1 | < 500 nM |
| CO/N=C(/c1ccncc1)c1cc(Cl)ccc1NS(=O)(=O)c1ccc(C(C)(C)C)cc1 | < 500 nM |

Second part, the compound after the results:

| IC50 | SMILES |
| --- | --- |
| < 500 nM | CCc1ccc(S(=O)(=O)Nc2ccc(Cl)cc2C(O)c2ccncc2)cc1 (stereo not drawn) |
| < 500 nM | CC(C)(C)c1ccc(S(=O)(=O)Nc2ccc(Cl)cc2C(O)c2ccccc2)cc1 (stereo not drawn) |
| < 500 nM | CC(C)Oc1ccc(S(=O)(=O)Nc2ccc(Cl)cc2C(O)c2ccncc2)cc1 (stereo not drawn) |

Same assay, conditions: Table 2, assay not specified per compound, read-out: IC50, activity in either or both of the chemotaxis assay and calcium mobilization assays

| IC50 | SMILES |
| --- | --- |
| < 2000 nM | O=S(=O)(Nc1ccc(Cl)cc1-c1nccc2ccccc12)c1ccc(-c2cnco2)cc1 |
| < 2000 nM | CC(C)(C)c1ccc(S(=O)(=O)Nc2ccc(Cl)cc2-c2nnn[nH]2)cc1 |
| < 2000 nM | CC(C)(C)c1ccc(S(=O)(=O)Nc2ccc(Cl)cc2-c2cc3ccccc3cn2)cc1 |
| < 2000 nM | CC(C)(C)c1ccc(S(=O)(=O)Nc2ccc(Cl)cc2-c2nccc3c[n+]([O-])ccc23)cc1 |
| < 2000 nM | CC(C)(C)c1ccc(S(=O)(=O)Nc2ccc(Cl)cc2-c2c3ccccc3cc[n+]2[O-])cc1 |
| < 2000 nM | CC(C)(C)c1ccc(S(=O)(=O)Nc2ccc(Cl)cc2-c2nccc3ccccc23)cc1 |
| < 2000 nM | CC(C)(C)c1ccc(S(=O)(=O)Nc2ccc(Cl)cc2-c2ccccn2)cc1 |

Same assay, conditions: Table 3, assay not specified per compound, read-out: IC50, activity in either or both of the chemotaxis assay and calcium mobilization assays

| SMILES | IC50 |
| --- | --- |
| CN(C)C(c1ccncc1)c1cc(Cl)ccc1NS(=O)(=O)c1ccc(C(C)(C)C)cc1 (stereo not drawn) | 500 to 5000 nM |
| COC(c1cc[n+]([O-])cc1)c1cc(Cl)ccc1NS(=O)(=O)c1ccc(C(C)(C)C)cc1 (stereo not drawn) | 500 to 5000 nM |
| CC(C)(C)c1ccc(S(=O)(=O)Nc2ccc(Cl)cc2C2(c3cc[n+]([O-])cc3)OCCO2)cc1 | 500 to 5000 nM |
| CC(C)(C)c1ccc(S(=O)(=O)Nc2ccc(Cl)cc2C(C)(O)c2cc[n+]([O-])cc2)cc1 (stereo not drawn) | 500 to 5000 nM |
| CC(=O)c1ccc(S(=O)(=O)Nc2ccc(Cl)cc2C(O)c2cccnc2)cc1 (stereo not drawn) | 500 to 5000 nM |
| CC(C)(C)c1ccc(S(=O)(=O)Nc2ccc(Cl)cc2C(C)(C)c2cc[n+]([O-])cc2)cc1 | 500 to 5000 nM |

Other lines, results leading:

| IC50 | SMILES |
| --- | --- |
| 500 to 5000 nM | CO/N=C(\c1ccccc1)c1cc(Cl)ccc1NS(=O)(=O)c1ccc(C)cc1 |
| 500 to 5000 nM | C=C(c1ccccc1)c1cc(Cl)ccc1NS(=O)(=O)c1ccc(C)cc1 |

Same assay, conditions: Table 4 (++), assay not specified per compound, read-out: IC50, activity in either or both of the chemotaxis assay and calcium mobilization assays

| IC50 | SMILES |
| --- | --- |
| 2000 to 10000 nM | COc1ccc(S(=O)(=O)Nc2ccc(Cl)cc2-c2ccccc2OC)cc1 |
| 2000 to 10000 nM | COc1ccc(S(=O)(=O)Nc2ccc(Cl)cc2-c2ccc(F)cc2)cc1 |
| 2000 to 10000 nM | COc1ccc(S(=O)(=O)Nc2ccc(Cl)cc2-c2ccc(Cl)cc2)cc1 |
| 2000 to 10000 nM | COc1ccc(-c2cc(Cl)ccc2NS(=O)(=O)c2ccc(OC)cc2)cc1 |
| 2000 to 10000 nM | COc1ccc(S(=O)(=O)Nc2ccc(Cl)cc2-c2ccc(C)cc2)cc1 |
| 2000 to 10000 nM | COc1ccc(S(=O)(=O)Nc2ccc(Cl)cc2-c2ccccc2)cc1 |
| 2000 to 10000 nM | COc1ccc(S(=O)(=O)Nc2ccc(Cl)cc2-c2cccc(OC)c2)cc1 |
| 2000 to 10000 nM | CC(C)(C)c1ccc(S(=O)(=O)Nc2ccccc2-c2ncc(-c3ccccc3)[nH]2)cc1 |
